The results in this text go back to patent publication US11541023B2, “Compounds and compositions for the treatment of neurodegenerative and inflammatory diseases” (SORBONNE UNIVERSITE, priority 2018, dated 2023).

Counter-ions that a name gives are not always drawn. Some results are limits rather than exact numbers.

One data set has as its target KLK1 (Homo sapiens (Human), UniProt P06870). The data set is described as follows: KLK1 enzymatic inhibition test (Boc-PFR-AMC). The following applies: for inhibition at 10 µM: KLK1 1.6 nM, Boc-PFR-AMC 100 μM, 15 min at 37° C., compound 10 μM; for IC50: KLK1, Boc-PFR-AMC, ni = non-inhibitor. It is filed as biochemical. As to the method:
The molecules were tested in order to evaluate their possible inhibitory effect on the enzymatic activity of KLK1. […] The results are presented in Table 4 below; all the inhibitors are reversible.

The target of another data set is KLK6 (Homo sapiens (Human), UniProt Q92876). Put plainly: KLK6 enzymatic inhibition test (fluorogenic/FRET peptide substrates). The following applies: for inhibition at 10 µM: read-out: % Inhibition at 10 μM.
The next data set deals with plasmin (Homo sapiens (Human), UniProt P00747). The data set is described as follows: Plasmin enzymatic inhibition test (Boc-QAR-AMC / PAR4 FRET substrate). The following applies: for inhibition at 10 µM: read-out: % Inhibition at 10 μM.
The subject of data set [1] is primary culture of murine cortical neurons. The data set is described as follows: Neurocytotoxicity, XTT cell survival test. It is filed as cell-based. Particulars: for % cell survival: 48 h. On the procedure:
FIG. 1: Evaluation of the neurocytotoxicity of the compounds 1 (comparative), 2 and 4 (according to the invention). The percentage cell survival was determined by measuring the absorbance at 485 nm for each concentration compared with the controls treated only with complete medium (positive control) or 20% DMSO (negative control). Each concentration was tested in quadruplicate. The neurons were taken from the stage E16 embryos of Swiss females. The cells are seeded at a density of 50 000 cells/well in precoated sterile transparent 96-well plates. The cells are cultured for 48 h in DMEM medium supplemented with 10% fetal calf serum (FCS), penicillin, streptomycin, N2 and B27, at 37° C. under a humid atmosphere with 5% CO2. The cells are then placed in the presence of the compounds described above (10, 25 or 50 μM) or of the DMSO control, and then incubated for 48 h. The medium is then replaced with 100 μl of XTT (0.3 mg·ml^−1) in order to carry out the cell viability test. […] The activity of the mitochondria is determined by measuring the absorbance at 485 nm. The percentage cell survival is calculated by the ratio of the absorbance in the presence of the inhibitor relative to the control condition (DMSO). The molecule is considered to be cytotoxic when the percentage cell survival is less than 80%.
A general note: Tetrazolium assays rely on reduction of a dye to a coloured formazan, in cell work by metabolically active cells.

Data set [2] concerns CG4 cell line (rat oligodendrocyte precursor cells), GFP/mCherry. The data set is described as follows: Cytotoxicity on GFP/mCherry oligodendrocyte line (Hoechst staining). It is filed as cell-based. Particulars: 72 h. As to the method: FIGS. 2 and 3: Evaluation of the cytotoxicity of the compounds 2 and 3 on the GFP/-mCherry oligodendrocyte line. The cell survival was evaluated by measuring the fluorescence intensity of the Hoechst staining compared with the basal control (TB). Each concentration was tested in quadruplicate. Statistics: Mann-Whitney test (p value=0.019). […] Legend—TB: basal control, T+: positive control (9-cis-retinoic acid). The line used is a CG4 cell line, said cell line being rat oligodendrocyte precursor cells (OPCs), and doubly transduced with the GFP gene under the control of the CMV promoter and the mCherry marker gene under the control of a promoter specific for differentiated and mature oligodendrocytes. The mCherry marker is expressed only at the differentiated oligodendrocyte stage and thus makes it possible to test compounds capable of inducing OPC differentiation. The cells were also stained with Hoechst in order to evaluate their viability. The cells are cultured in the proliferation medium described by Louis et al. (Louis et al., J Neurosci Res. 1992 January; 31(1):193-204) during their seeding, and then transferred into a differentiation medium (DMEM/F12, B27, N1, biotin, laminin). The cells are treated with various concentrations of inhibitor for 72 h in 96-well plates, then screened by means of an automated inverted microscope. The experimental controls used are a basal control containing only the differentiation medium and a positive control, 9-cis-retinoic acid, which is known for its effect in inducing OPC differentiation (Huang et al., Nature Neuroscience 14, 45-53 (2011)). Firstly, the cytotoxicity of the compounds is evaluated by virtue of the comparison of the intensity of the Hoechst staining for each experimental condition with respect to the basal control.

The mark [3] stands for this setting: plasmin, FRET substrate PAR4, ni = non-inhibitor.

KLK1, sequence (P06870 25-262): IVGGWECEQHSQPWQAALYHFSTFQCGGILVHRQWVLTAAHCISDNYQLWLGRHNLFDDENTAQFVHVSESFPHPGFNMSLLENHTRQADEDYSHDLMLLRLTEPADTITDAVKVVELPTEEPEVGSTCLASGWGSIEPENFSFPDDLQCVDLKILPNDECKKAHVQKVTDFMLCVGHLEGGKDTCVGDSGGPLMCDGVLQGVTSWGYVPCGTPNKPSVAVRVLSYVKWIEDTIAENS
plasmin, sequence (P00747 581-810 limits assumed): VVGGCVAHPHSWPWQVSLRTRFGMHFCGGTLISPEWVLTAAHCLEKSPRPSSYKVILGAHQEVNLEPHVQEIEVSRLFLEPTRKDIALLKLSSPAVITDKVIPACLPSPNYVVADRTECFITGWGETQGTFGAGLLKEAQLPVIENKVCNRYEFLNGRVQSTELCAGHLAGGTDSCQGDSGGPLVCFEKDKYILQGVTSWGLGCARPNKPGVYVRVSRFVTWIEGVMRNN
plasmin, sequence (P00747 97-580 partner limits assumed): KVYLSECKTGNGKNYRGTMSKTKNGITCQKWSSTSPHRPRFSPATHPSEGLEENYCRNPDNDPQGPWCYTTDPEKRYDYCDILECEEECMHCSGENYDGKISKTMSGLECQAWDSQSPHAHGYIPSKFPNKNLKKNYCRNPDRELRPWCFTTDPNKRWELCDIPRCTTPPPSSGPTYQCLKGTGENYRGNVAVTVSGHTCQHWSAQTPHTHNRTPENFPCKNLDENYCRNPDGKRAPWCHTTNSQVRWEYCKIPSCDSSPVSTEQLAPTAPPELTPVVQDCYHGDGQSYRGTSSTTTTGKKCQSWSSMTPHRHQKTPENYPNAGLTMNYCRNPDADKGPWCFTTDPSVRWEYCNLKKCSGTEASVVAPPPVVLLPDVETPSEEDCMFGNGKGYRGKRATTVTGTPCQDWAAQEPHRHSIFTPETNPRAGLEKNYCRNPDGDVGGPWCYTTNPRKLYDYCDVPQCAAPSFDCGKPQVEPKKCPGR

For orientation: inhibition means the change of the read-out against control, counted positive when it falls. For `CC(C)c1ccc(C(=O)Nc2ccc(CN)cc2)c(O)c1` [Compound 6, N-(4-(Aminomethyl)phenyl)-4-isopropyl-2-hydroxybenzamide hydrochloride], the inhibition at 10 µM against KLK1 was 57.7%; at KLK6, 84.7%; on plasmin, 70.2%.

A word on the IC50: it is the point on the concentration scale where inhibition reaches its midpoint. A high value points to weaker potency. On to `Cc1ccc(C(=O)Nc2ccc(CN)cc2)c(O)c1.Cl` [Compound 4, N-(4-(Aminomethyl)phenyl)-4-methyl-2-hydroxybenzamide hydrochloride], for which the inhibition at 10 µM against KLK1 came out at 61.7%; at KLK6, 68.8%; at plasmin, 54.3%. In addition, the “% cell survival” value in data set [1] (10 μM) is reported as > 80%; in data set [1] (25 μM) it was > 90%. Besides, the Cytotoxicity entry in data set [2] (between 2 and 12 μM) is “does not exhibit any toxicity”. Also, the half-inhibitory concentration (IC50) result on plasmin (setting [3]) is “ni”.

In the case of `NCc1ccc(NC(=O)c2cc3ccccc3cc2O)cc1` [Compound 3, N-(4-(Aminomethyl)phenyl)-3-hydroxy-2-naphthamide hydrochloride], the inhibition at 10 µM was 77% against KLK1 and 81% at plasmin.

`COc1ccc2c(O)c(C(=O)Nc3ccc(CN)cc3)ccc2c1` [Compound 5, N-(4-(Aminomethyl)phenyl)-6-methoxy-1-hydroxy-2-naphthamide hydrochloride]: the figures for the inhibition at 10 µM against KLK1 and at plasmin were 46.5% and 100%, respectively.

As to `Cl.NCc1ccc(NC(=O)c2ccc3ccccc3c2O)cc1` [Compound 2, N-(4-(Aminomethyl)phenyl)-1-hydroxy-2-naphthamide hydrochloride], the inhibition at 10 µM is 47.7% on KLK1, 77.2% on KLK6 and 97.4% at plasmin. On KLK1, the IC50 entry was “ni”. Also, the entries for the “% cell survival” value in data set [1] (10 μM), in data set [1] (25 μM) and in data set [1] (second statement printed as 25 μM (presumably 50 μM)) were > 80%, > 90% and > 90%, respectively. The “Cytotoxicity (Hoechst staining relative to basal control)” value in data set [2] (all concentrations tested) is reported as “not cytotoxic”.

One may read the Ki as the dissociation constant of the complex between target and ligand, obtained from inhibition or displacement. Low readings indicate a stronger hold on the target, high ones a looser hold on the target. As for `CC(C)(C)c1ccc(O)c(C(=O)Nc2ccc(CN)cc2)c1.Cl` [Compound 1, N-(4-(Aminomethyl)phenyl)-5-tert-butyl-2-hydroxybenzamide hydrochloride, reference compound], the inhibition at 10 µM against KLK1 amounted to 32.8%; on KLK6, 51%; at plasmin it was 39.3%. In addition, the IC50 result was “ni” on KLK1; 39.8 µM against KLK6 (KLK6, FRET substrate MBP3); 21.7 µM against KLK6 (KLK6, FRET substrate PAR2); 9.06 µM on KLK6 (KLK6, substrate Boc-QAR-AMC); “ni” at plasmin (setting [3]); 17.1 µM on plasmin (plasmin, substrate Boc-QAR-AMC). For the same molecule, in data set [1] (10 μM), the “% cell survival” value is > 80%. The Neurocytotoxicity entry in data set [1] (10, 25 and 50 μM) was “dose-dependent effect”. For the same molecule, the “Concentrations at which toxicity is exhibited” value in data set [2] (oligodendrocyte line) is on record as “above 10 μM”. Moreover, the Inhibition type entry is “Competitive” on KLK6 (KLK6, Boc-QAR-AMC, competitive/noncompetitive by Dixon method) and “Competitive” on plasmin (plasmin, Boc-QAR-AMC, competitive/noncompetitive by Dixon method). The inhibition constant Ki at KLK6 (KLK6, substrate Boc-QAR-AMC, Dixon method) worked out at 4.44 µM; at plasmin (plasmin, substrate Boc-QAR-AMC, Dixon method) it was 14.4 µM. The “Inhibition type (reversibility)” value is “reversible” on KLK6 (KLK6, dilution method) and “reversible” on plasmin (plasmin, dilution method).
